In ChEMBL document CHEMBL1201862, “PubChem BioAssay data set” (2004):
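Growth conditions: 96-well plates. Treatment: test compound, 48 hours, 5 concentrations. Analysis: linear interpolation between bracketing concentrations; unreached endpoints set to highest concentration. Here, GI50 denotes the concentration required for 50% inhibition of growth.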 Calls of active or inactive are those of the source. Rule as the data show it: active = GI50 up to about 1.1 µM and inactive = higher.

Columns and labels:
Experiment in all cases: NCI anticancer screen, dose series, 48 h
HCT-15 = tested on: HCT-15
UACC-62 = tested on: UACC-62
TK-10 = tested on: TK-10
OVCAR-3 = tested on: OVCAR-3
NCI-H522 = tested on: NCI-H522
SF-268 = tested on: SF-268
COLO 205 = tested on: COLO 205
SK-MEL-5 = tested on: SK-MEL-5
SK-OV-3 = tested on: SK-OV-3
NCI-H23 = tested on: NCI-H23
CCRF-CEM = tested on: CCRF-CEM
UO-31 = tested on: UO-31
MOLT-4 = tested on: MOLT-4
NCI-H226 = tested on: NCI-H226
EKVX = tested on: EKVX
K562 = tested on: K562
SK-MEL-2 = tested on: SK-MEL-2
SK-MEL-28 = tested on: SK-MEL-28
U-251 = tested on: U-251
A498 = tested on: A498

| Structure (SMILES) | GI50 (HCT-15) [µM] | GI50 (UACC-62) | GI50 (TK-10) | GI50 (OVCAR-3) | GI50 (NCI-H522) | GI50 (SF-268) | GI50 (COLO 205) | GI50 (SK-MEL-5) | GI50 (SK-OV-3) | GI50 (NCI-H23) | GI50 (CCRF-CEM) | GI50 (UO-31) | GI50 (MOLT-4) | GI50 (NCI-H226) | GI50 (EKVX) | GI50 (K562) | GI50 (SK-MEL-2) | GI50 (SK-MEL-28) | GI50 (U-251) | GI50 (A498) |
| --- | --- | --- | --- | --- | --- | --- | --- | --- | --- | --- | --- | --- | --- | --- | --- | --- | --- | --- | --- | --- |
| CSC(=S)Nc1cc(C)ccn1 | > 100 | > 100 µM (inactive) | > 100 µM (inactive) | 40.6 µM (inactive) | 40.7 µM (inactive) | 70 µM (inactive) | 50.8 µM (inactive) | 16.7 µM (inactive) | > 100 µM (inactive) | > 100 µM (inactive) | > 100 µM (inactive) | > 100 µM (inactive) | > 100 µM (inactive) | > 100 µM (inactive) | > 100 µM (inactive) | 62.5 µM (inactive) | 93.5 µM (inactive) | > 100 µM (inactive) | 67.8 µM (inactive) | – |
| O=C(OCc1ccccc1)c1ccccc1-c1c2ccc(=O)cc-2oc2cc(OCc3ccccc3)ccc12 | 9.84 | 10.2 µM (inactive) | – | 17.6 µM (inactive) | – | 14.1 µM (inactive) | 18.6 µM (inactive) | 5.86 µM (inactive) | – | 10.4 µM (inactive) | 3.61 µM (inactive) | 6.12 µM (inactive) | 1.95 µM (inactive) | 11.6 µM (inactive) | 6.61 µM (inactive) | 3.18 µM (inactive) | 18.7 µM (inactive) | 21.4 µM (inactive) | 5.32 µM (inactive) | 25.5 µM (inactive) |
| CC(C)c1ccc(Cc2ccc(C(C)C)c(NC(=O)C(=O)Cc3cnc4ccccc4n3)c2C(C)C)c(C(C)C)c1NC(=O)C(=O)Cc1cnc2ccccc2n1 | > 100 | > 100 µM (inactive) | > 100 µM (inactive) | > 100 µM (inactive) | – | – | > 100 µM (inactive) | > 100 µM (inactive) | > 100 µM (inactive) | – | > 100 µM (inactive) | 53 µM (inactive) | > 100 µM (inactive) | – | > 100 µM (inactive) | > 100 µM (inactive) | > 100 µM (inactive) | – | > 100 µM (inactive) | > 100 µM (inactive) |
| CCCNC(=O)C1C(=O)C(=O)N(CCC)C1=O (stereo not drawn) | > 100 | > 100 µM (inactive) | > 100 µM (inactive) | > 100 µM (inactive) | > 100 µM (inactive) | > 100 µM (inactive) | > 100 µM (inactive) | > 100 µM (inactive) | > 100 µM (inactive) | > 100 µM (inactive) | > 100 µM (inactive) | > 100 µM (inactive) | > 100 µM (inactive) | – | > 100 µM (inactive) | > 100 µM (inactive) | > 100 µM (inactive) | > 100 µM (inactive) | > 100 µM (inactive) | > 100 µM (inactive) |
| CC1(C)OCC2OC3([C@@H]4OC(C)(C)O[C@H]4CO)OC(C)(C)OC3C2O1 (stereo partly drawn) | > 100 | > 100 µM (inactive) | – | > 100 µM (inactive) | – | – | > 100 µM (inactive) | > 100 µM (inactive) | – | > 100 µM (inactive) | > 100 µM (inactive) | > 100 µM (inactive) | > 100 µM (inactive) | > 100 µM (inactive) | > 100 µM (inactive) | > 100 µM (inactive) | > 100 µM (inactive) | > 100 µM (inactive) | > 100 µM (inactive) | > 100 µM (inactive) |
| COc1ccc(C(=O)/C=C/c2ccc(OCCSCCCCCCCCCCSCCOc3ccc(/C=C/C(=O)c4ccc(OC)c(OC)c4)cc3)cc2)cc1OC | > 100 | > 100 µM (inactive) | > 100 µM (inactive) | – | 73.8 µM (inactive) | > 100 µM (inactive) | > 100 µM (inactive) | > 100 µM (inactive) | > 100 µM (inactive) | > 100 µM (inactive) | > 100 µM (inactive) | – | > 100 µM (inactive) | – | > 100 µM (inactive) | > 100 µM (inactive) | – | > 100 µM (inactive) | – | > 100 µM (inactive) |
| OCC(O)C(OC1OC(CO)C(O)C(O)C1O)c1nn(-c2ccc(Cl)cc2)c2nc3cc(Cl)ccc3nc12 (stereo not drawn) | > 100 | > 100 µM (inactive) | > 100 µM (inactive) | > 100 µM (inactive) | > 100 µM (inactive) | > 100 µM (inactive) | – | – | > 100 µM (inactive) | > 100 µM (inactive) | > 100 µM (inactive) | > 100 µM (inactive) | > 100 µM (inactive) | – | > 100 µM (inactive) | > 100 µM (inactive) | – | > 100 µM (inactive) | > 100 µM (inactive) | > 100 µM (inactive) |
| COC(=O)NC12CC3CC(CC(F)(C3)C1)C2 | – | > 100 µM (inactive) | > 100 µM (inactive) | > 100 µM (inactive) | > 100 µM (inactive) | – | > 100 µM (inactive) | – | > 100 µM (inactive) | > 100 µM (inactive) | > 100 µM (inactive) | > 100 µM (inactive) | > 100 µM (inactive) | – | > 100 µM (inactive) | > 100 µM (inactive) | > 100 µM (inactive) | > 100 µM (inactive) | > 100 µM (inactive) | > 100 µM (inactive) |
